Measured values from PMC12028158, “Synthesis and In Vitro Evaluation of the Anticancer Effect of Novel Phosphonium Vindoline Derivatives” (International Journal of Molecular Sciences, 2025).

What was measured:
Format in all cases: cell-based
MOLT-4 [1] = experiment: NCI60 five-dose screen; conditions: Homo sapiens, MOLT-4
A549/ATCC = experiment: NCI60 five-dose screen; conditions: Homo sapiens, A549
NCI-H226 [2] = experiment: NCI60 five-dose screen; conditions: Homo sapiens, NCI-H226
HCT-116 = experiment: NCI60 five-dose screen; conditions: Homo sapiens, HCT-116
HCT-15 [3] = experiment: NCI60 five-dose screen; conditions: Homo sapiens, HCT-15
HT29 [4] = experiment: NCI60 five-dose screen; conditions: Homo sapiens, HT-29
SF-295 [5] = experiment: NCI60 five-dose screen; conditions: Homo sapiens, SF-295
SNB-19 = experiment: NCI60 five-dose screen; conditions: Homo sapiens, SNB-19
M14 [6] = experiment: NCI60 five-dose screen; conditions: Homo sapiens, M14
MDA-MB-435 = experiment: NCI60 five-dose screen; conditions: Homo sapiens, MDA-MB-435
SK-MEL-28 = experiment: NCI60 five-dose screen; conditions: Homo sapiens, SK-MEL-28
SK-MEL-5 = experiment: NCI60 five-dose screen; conditions: Homo sapiens, SK-MEL-5
UACC-257 = experiment: NCI60 five-dose screen; conditions: Homo sapiens, UACC-257
UACC-62 = experiment: NCI60 five-dose screen; conditions: Homo sapiens, UACC-62
OVCAR-3 = experiment: NCI60 five-dose screen; conditions: Homo sapiens, OVCAR-3
OVCAR-4 = experiment: NCI60 five-dose screen; conditions: Homo sapiens, OVCAR-4
OVCAR-8 [7] = experiment: NCI60 five-dose screen; conditions: Homo sapiens, OVCAR-8
SK-OV-3 = experiment: NCI60 five-dose screen; conditions: Homo sapiens, SK-OV-3
786-0 = experiment: NCI60 five-dose screen; conditions: Homo sapiens, 786-0
A498 = experiment: NCI60 five-dose screen; conditions: Homo sapiens, A498
SN12C = experiment: NCI60 five-dose screen; conditions: Homo sapiens
MCF7 = experiment: NCI60 five-dose screen; conditions: Homo sapiens, MCF7
BT-549 [8] = experiment: NCI60 five-dose screen; conditions: Homo sapiens, BT-549
[9] = tested on: Non-small Cell Lung Cancer panel; experiment: NCI60 five-dose screen, panel mean; conditions: Homo sapiens, read-out: Mean GI50
Colon Cancer panel = experiment: NCI60 five-dose screen, panel mean; conditions: Homo sapiens, read-out: Mean GI50
CNS Cancer panel = experiment: NCI60 five-dose screen, panel mean; conditions: Homo sapiens, read-out: Mean GI50
Ovarian Cancer panel = experiment: NCI60 five-dose screen, panel mean; conditions: Homo sapiens, read-out: Mean GI50
Renal Cancer panel = experiment: NCI60 five-dose screen, panel mean; conditions: Homo sapiens, read-out: Mean GI50
MOLT-4 [10] = experiment: NCI60 one-dose screen; conditions: Homo sapiens, MOLT-4, read-out: Growth percent
NCI-H226 [11] = experiment: NCI60 one-dose screen; conditions: Homo sapiens, NCI-H226, read-out: Growth percent
NCI-H23 = experiment: NCI60 one-dose screen; conditions: Homo sapiens, NCI-H23, read-out: Growth percent
COLO 205 = experiment: NCI60 one-dose screen; conditions: Homo sapiens, COLO 205, read-out: Growth percent
HCC-2998 = experiment: NCI60 one-dose screen; conditions: Homo sapiens, HCC 2998, read-out: Growth percent
HCT-15 [12] = experiment: NCI60 one-dose screen; conditions: Homo sapiens, HCT-15, read-out: Growth percent
HT29 [13] = experiment: NCI60 one-dose screen; conditions: Homo sapiens, HT-29, read-out: Growth percent
KM12 = experiment: NCI60 one-dose screen; conditions: Homo sapiens, KM12, read-out: Growth percent
SW-620 = experiment: NCI60 one-dose screen; conditions: Homo sapiens, SW-620, read-out: Growth percent
SF-268 = experiment: NCI60 one-dose screen; conditions: Homo sapiens, SF-268, read-out: Growth percent
SF-295 [14] = experiment: NCI60 one-dose screen; conditions: Homo sapiens, SF-295, read-out: Growth percent
M14 [15] = experiment: NCI60 one-dose screen; conditions: Homo sapiens, M14, read-out: Growth percent
OVCAR-8 [16] = experiment: NCI60 one-dose screen; conditions: Homo sapiens, OVCAR-8, read-out: Growth percent
CAKI-1 = experiment: NCI60 one-dose screen; conditions: Homo sapiens, CAKI-1, read-out: Growth percent
RXF 393 = experiment: NCI60 one-dose screen; conditions: Homo sapiens, RXF 393, read-out: Growth percent
TK-10 = experiment: NCI60 one-dose screen; conditions: Homo sapiens, TK-10, read-out: Growth percent
PC-3 = experiment: NCI60 one-dose screen; conditions: Homo sapiens, PC-3, read-out: Growth percent
BT-549 [17] = experiment: NCI60 one-dose screen; conditions: Homo sapiens, BT-549, read-out: Growth percent
MDA-MB-468 = experiment: NCI60 one-dose screen; conditions: Homo sapiens, MDA-MB-468, read-out: Growth percent

CC[C@]12C=CCN3CC[C@@]4(c5ccc(OC)cc5N(C)[C@H]4[C@@](O)(C(=O)OC)[C@@H]1OC(=O)CCC[P+](c1ccc(F)cc1)(c1ccc(F)cc1)c1ccc(F)cc1)[C@@H]32 [9c]
GI50 (MOLT-4 [1]): 9.69 µM | GI50 (A549/ATCC): 21.5 µM | GI50 (NCI-H226 [2]): 24.2 µM | GI50 (HCT-116): 14.8 µM | GI50 (HCT-15 [3]): > 48.5 µM | GI50 (HT29 [4]): 12.5 µM | GI50 (SF-295 [5]): > 48.5 µM | GI50 (SNB-19): 11.4 µM | GI50 (M14 [6]): 9.1 µM | GI50 (MDA-MB-435): 8.14 µM | GI50 (SK-MEL-28): 5.34 µM | GI50 (SK-MEL-5): 8.26 µM | GI50 (UACC-257): 4.67 µM | GI50 (UACC-62): 6.05 µM | GI50 (OVCAR-3): 6.47 µM | GI50 (OVCAR-4): 16.2 µM | GI50 (OVCAR-8 [7]): 18.4 µM | GI50 (SK-OV-3): 15.8 µM | GI50 (786-0): > 48.5 µM | GI50 (A498): > 48.5 µM | GI50 (SN12C): 14.8 µM | GI50 (MCF7): 8.26 µM | GI50 (BT-549 [8]): 8.13 µM | GI50 [9]: 19.6 µM | GI50 (Colon Cancer panel): 16.8 µM | GI50 (CNS Cancer panel): 20.2 µM | GI50 (Ovarian Cancer panel): 19 µM | GI50 (Renal Cancer panel): 34.2 µM | activity at 10 µM (MOLT-4 [10]): 37.1% | activity at 10 µM (NCI-H226 [11]): 46.9% | activity at 10 µM (NCI-H23): 35.5% | activity at 10 µM (COLO 205): -18.9% | activity at 10 µM (HCC-2998): 22.4% | activity at 10 µM (HCT-15 [12]): 99.6% | activity at 10 µM (HT29 [13]): 15.7% | activity at 10 µM (KM12): 21.3% | activity at 10 µM (SW-620): 45.3% | activity at 10 µM (SF-268): 42.3% | activity at 10 µM (SF-295 [14]): 85% | activity at 10 µM (M14 [15]): 21.4% | activity at 10 µM (OVCAR-8 [16]): 28% | activity at 10 µM (CAKI-1): 73.1% | activity at 10 µM (RXF 393): -10.4% | activity at 10 µM (TK-10): 63.9% | activity at 10 µM (PC-3): 16.7% | activity at 10 µM (BT-549 [17]): -9.4% | activity at 10 µM (MDA-MB-468): -74.6%

CC[C@]12C=CCN3CC[C@@]4(c5ccc(OC)cc5N(C)[C@H]4[C@@](O)(C(=O)OC)[C@@H]1OC(=O)CCC[P+](C1CCCCC1)(C1CCCCC1)C1CCCCC1)[C@@H]32 [9d]
GI50 (MOLT-4 [1]): 2.16 µM | GI50 (A549/ATCC): 3.46 µM | GI50 (NCI-H226 [2]): 4.06 µM | GI50 (HCT-116): 2.85 µM | GI50 (HCT-15 [3]): 15.3 µM | GI50 (HT29 [4]): 1.88 µM | GI50 (SF-295 [5]): 4.41 µM | GI50 (SNB-19): 2.22 µM | GI50 (M14 [6]): 1.92 µM | GI50 (MDA-MB-435): 1.83 µM | GI50 (SK-MEL-28): 1.08 µM | GI50 (SK-MEL-5): 1.76 µM | GI50 (UACC-257): 1.26 µM | GI50 (UACC-62): 1.41 µM | GI50 (OVCAR-3): 1.74 µM | GI50 (OVCAR-4): 2.39 µM | GI50 (OVCAR-8 [7]): 2.97 µM | GI50 (SK-OV-3): 2.59 µM | GI50 (786-0): 4.45 µM | GI50 (A498): 12.4 µM | GI50 (SN12C): 2.89 µM | GI50 (MCF7): 1.19 µM | GI50 (BT-549 [8]): 2.44 µM | GI50 [9]: 3.67 µM | GI50 (Colon Cancer panel): 3.82 µM | GI50 (CNS Cancer panel): 2.71 µM | GI50 (Ovarian Cancer panel): 7.12 µM | GI50 (Renal Cancer panel): 7.93 µM | activity at 10 µM (MOLT-4 [10]): 2.35% | activity at 10 µM (NCI-H226 [11]): -20% | activity at 10 µM (NCI-H23): -4.73% | activity at 10 µM (COLO 205): -63.6% | activity at 10 µM (HCC-2998): -92.6% | activity at 10 µM (HCT-15 [12]): 76.6% | activity at 10 µM (HT29 [13]): -56.7% | activity at 10 µM (KM12): -63.4% | activity at 10 µM (SW-620): 3.91% | activity at 10 µM (SF-268): -54.1% | activity at 10 µM (SF-295 [14]): -13.6% | activity at 10 µM (M14 [15]): -78% | activity at 10 µM (OVCAR-8 [16]): 1.19% | activity at 10 µM (CAKI-1): -8.49% | activity at 10 µM (RXF 393): -70.3% | activity at 10 µM (TK-10): -48.6% | activity at 10 µM (PC-3): -12% | activity at 10 µM (BT-549 [17]): -97.4% | activity at 10 µM (MDA-MB-468): -79.6%
